Test results from patent US20150307520A1, “NOVEL HETEROARYL AND HETEROCYCLE COMPOUNDS, COMPOSITIONS AND METHODS THEREOF” (HUTCHISON MEDIPHARMA LIMITED, priority 2012, published 2015).
pIC50: −log10 of the molar value.

Legend:
Type in all cases: biochemical
p110β/p85α = p110β/p85α (Homo sapiens, UniProt P42338); experiment: Transcreener KINASE Assay, kinase inhibition of p110β/p85α; conditions: for PI3Kβ IH % @ 1 uM: 1 uM test compound; for pIC50: read-out: PI3Kβ IC50
Outline: (§1)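 Kinase reactions run 80 min at room temperature, pH buffered with 50 mM HEPES plus 3 mM MgCl2 and 0.03% CHAPS; the PIP2/ATP mix added was 30 uM/10 uM. Generated ADP is then read by FP immunoassay.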

p110γ = p110γ (Homo sapiens, UniProt P48736); experiment: Transcreener KINASE Assay, kinase inhibition of p110γ; conditions: for PI3Kγ IH % @ 1 uM: 1 uM test compound; for pIC50: read-out: PI3Kγ IC50
Chain of p110γ (P48736 whole entry): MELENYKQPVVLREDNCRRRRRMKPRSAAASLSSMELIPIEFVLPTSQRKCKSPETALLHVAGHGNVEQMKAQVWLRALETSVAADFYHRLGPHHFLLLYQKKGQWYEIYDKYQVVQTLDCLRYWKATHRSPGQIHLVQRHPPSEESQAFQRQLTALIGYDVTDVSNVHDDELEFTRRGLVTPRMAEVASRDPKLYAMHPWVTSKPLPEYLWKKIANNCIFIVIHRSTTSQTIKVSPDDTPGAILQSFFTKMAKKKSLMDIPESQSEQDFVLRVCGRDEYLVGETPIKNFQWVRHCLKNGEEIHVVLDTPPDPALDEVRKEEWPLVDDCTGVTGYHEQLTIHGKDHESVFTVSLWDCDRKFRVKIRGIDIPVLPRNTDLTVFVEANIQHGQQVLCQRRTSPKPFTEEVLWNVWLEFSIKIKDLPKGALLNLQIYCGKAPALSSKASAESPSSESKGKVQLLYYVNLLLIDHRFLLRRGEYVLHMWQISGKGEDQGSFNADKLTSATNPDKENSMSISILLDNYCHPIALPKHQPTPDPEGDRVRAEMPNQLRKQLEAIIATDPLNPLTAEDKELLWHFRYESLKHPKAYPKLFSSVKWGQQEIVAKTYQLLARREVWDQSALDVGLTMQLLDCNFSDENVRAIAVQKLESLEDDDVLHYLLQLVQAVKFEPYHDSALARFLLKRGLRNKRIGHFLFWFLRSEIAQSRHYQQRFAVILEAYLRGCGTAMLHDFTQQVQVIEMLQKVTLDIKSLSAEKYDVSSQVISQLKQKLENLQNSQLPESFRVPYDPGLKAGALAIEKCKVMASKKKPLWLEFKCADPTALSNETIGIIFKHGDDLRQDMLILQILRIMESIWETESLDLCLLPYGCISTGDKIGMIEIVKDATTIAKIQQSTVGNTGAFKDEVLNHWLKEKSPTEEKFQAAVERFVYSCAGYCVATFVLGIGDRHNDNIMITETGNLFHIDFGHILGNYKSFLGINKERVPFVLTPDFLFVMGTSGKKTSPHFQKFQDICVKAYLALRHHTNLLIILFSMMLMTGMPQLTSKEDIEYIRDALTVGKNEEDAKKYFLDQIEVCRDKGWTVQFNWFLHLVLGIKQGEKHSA
Outline: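 FP read-out: far-red competitive immunoassay sensing ADP produced by recombinant p110/p85 or p110γ enzyme. Reaction 80 min RT, then detection mix 60 min RT. IC50 from curve fit.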

p110δ/p85α = p110δ/p85α (Homo sapiens, UniProt O00329); experiment: Transcreener KINASE Assay, kinase inhibition of p110δ/p85α; conditions: for PI3Kδ IH % @ 1 uM: 1 uM test compound; for pIC50: read-out: PI3Kδ IC50
Chain of p110δ/p85α (O00329 whole entry): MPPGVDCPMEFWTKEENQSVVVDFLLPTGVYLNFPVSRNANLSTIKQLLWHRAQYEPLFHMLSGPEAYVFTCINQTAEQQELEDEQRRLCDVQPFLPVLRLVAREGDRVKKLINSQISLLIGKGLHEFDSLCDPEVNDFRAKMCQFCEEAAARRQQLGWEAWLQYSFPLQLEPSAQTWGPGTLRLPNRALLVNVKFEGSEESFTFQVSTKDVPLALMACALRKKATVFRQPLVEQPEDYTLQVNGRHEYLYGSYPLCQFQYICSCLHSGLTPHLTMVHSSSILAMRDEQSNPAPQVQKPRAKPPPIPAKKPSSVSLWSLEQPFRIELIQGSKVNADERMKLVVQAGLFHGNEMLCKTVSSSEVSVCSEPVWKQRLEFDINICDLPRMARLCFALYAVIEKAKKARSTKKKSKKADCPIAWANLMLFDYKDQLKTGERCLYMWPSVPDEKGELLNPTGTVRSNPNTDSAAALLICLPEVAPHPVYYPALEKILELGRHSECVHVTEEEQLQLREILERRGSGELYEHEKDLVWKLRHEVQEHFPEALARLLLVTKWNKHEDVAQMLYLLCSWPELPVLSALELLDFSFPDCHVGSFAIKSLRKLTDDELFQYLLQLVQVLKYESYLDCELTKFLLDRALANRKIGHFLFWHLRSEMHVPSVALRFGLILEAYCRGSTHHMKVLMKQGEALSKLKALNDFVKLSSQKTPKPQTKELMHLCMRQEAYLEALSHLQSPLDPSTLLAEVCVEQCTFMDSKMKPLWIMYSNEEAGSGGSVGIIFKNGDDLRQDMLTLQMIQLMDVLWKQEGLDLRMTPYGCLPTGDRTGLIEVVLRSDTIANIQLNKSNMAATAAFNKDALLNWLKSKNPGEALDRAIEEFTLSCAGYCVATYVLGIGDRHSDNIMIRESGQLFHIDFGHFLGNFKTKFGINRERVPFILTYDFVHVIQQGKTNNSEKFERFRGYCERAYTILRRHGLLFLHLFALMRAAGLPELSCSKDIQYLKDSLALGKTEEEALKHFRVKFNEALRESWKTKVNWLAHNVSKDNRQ
Chain of p110δ/p85α (P27986 whole entry partner): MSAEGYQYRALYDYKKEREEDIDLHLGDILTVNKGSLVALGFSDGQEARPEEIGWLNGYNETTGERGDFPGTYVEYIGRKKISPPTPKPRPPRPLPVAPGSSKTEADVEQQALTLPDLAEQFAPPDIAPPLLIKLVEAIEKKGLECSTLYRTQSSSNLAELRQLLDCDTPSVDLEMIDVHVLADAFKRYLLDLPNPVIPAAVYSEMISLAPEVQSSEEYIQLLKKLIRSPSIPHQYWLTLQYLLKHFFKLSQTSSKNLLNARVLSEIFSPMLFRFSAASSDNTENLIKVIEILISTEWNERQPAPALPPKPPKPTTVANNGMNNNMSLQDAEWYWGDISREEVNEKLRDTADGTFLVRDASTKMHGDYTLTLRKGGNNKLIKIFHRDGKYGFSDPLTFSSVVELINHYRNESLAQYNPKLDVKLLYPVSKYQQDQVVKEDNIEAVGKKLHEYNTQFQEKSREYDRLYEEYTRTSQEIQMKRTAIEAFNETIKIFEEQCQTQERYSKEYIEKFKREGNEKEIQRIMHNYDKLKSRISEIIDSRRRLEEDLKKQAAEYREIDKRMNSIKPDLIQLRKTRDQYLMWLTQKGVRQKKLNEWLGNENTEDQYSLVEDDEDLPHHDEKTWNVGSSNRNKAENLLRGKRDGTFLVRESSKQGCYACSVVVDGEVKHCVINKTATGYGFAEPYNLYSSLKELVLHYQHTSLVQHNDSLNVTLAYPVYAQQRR
Outline: as §1

Chain of p110β/p85α (P42338 whole entry): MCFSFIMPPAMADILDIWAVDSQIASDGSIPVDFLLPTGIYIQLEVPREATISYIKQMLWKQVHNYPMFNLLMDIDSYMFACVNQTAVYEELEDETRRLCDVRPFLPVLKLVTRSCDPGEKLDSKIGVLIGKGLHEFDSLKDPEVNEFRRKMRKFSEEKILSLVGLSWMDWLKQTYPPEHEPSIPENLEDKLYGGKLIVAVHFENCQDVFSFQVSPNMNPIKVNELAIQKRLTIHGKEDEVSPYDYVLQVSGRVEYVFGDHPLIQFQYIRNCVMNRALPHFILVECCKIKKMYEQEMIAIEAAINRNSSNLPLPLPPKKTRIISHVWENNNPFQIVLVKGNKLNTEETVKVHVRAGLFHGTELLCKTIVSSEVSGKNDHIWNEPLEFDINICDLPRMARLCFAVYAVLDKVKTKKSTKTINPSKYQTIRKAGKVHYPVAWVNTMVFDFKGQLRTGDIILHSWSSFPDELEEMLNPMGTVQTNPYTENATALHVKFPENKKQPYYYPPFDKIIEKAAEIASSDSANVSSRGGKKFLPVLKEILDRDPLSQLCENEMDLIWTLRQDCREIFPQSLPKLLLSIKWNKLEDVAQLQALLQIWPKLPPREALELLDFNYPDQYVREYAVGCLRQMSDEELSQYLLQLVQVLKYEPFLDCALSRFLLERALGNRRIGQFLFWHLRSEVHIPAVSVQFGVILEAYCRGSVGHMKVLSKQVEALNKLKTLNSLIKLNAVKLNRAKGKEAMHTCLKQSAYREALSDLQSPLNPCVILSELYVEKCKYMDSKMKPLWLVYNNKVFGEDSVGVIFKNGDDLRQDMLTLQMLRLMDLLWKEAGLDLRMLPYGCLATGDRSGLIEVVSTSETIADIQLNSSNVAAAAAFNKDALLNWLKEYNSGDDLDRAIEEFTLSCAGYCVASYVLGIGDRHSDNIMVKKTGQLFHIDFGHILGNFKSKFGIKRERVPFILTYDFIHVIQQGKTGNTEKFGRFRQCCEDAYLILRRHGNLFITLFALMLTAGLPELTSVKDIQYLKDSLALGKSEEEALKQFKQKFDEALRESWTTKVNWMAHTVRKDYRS
Chain of p110β/p85α (P27986 2-724 partner): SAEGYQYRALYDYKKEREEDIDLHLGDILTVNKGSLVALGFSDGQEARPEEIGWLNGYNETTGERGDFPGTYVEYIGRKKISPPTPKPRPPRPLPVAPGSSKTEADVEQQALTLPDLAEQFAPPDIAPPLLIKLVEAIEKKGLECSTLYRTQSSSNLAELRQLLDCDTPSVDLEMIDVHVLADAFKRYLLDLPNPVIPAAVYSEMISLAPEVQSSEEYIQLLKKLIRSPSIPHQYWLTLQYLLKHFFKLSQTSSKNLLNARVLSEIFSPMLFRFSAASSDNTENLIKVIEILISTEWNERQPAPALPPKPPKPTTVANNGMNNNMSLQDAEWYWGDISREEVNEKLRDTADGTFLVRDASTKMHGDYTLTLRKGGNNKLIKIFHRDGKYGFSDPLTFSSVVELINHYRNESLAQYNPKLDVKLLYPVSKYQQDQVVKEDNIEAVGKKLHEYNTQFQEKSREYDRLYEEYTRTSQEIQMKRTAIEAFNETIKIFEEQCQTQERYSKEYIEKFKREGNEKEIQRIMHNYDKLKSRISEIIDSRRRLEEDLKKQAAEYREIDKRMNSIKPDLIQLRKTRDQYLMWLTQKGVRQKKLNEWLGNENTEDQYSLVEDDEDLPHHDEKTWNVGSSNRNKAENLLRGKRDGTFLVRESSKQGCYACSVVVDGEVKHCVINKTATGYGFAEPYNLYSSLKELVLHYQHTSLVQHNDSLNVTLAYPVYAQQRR

SMILES	PI3Kβ IH % @ 1 uM (p110β/p85α) [%]	pIC50 (p110β/p85α)	PI3Kγ IH % @ 1 uM (p110γ) [%]	pIC50 (p110γ)	PI3Kδ IH % @ 1 uM (p110δ/p85α) [%]	pIC50 (p110δ/p85α)
N#Cc1c[nH]c2ncnc(N3C[C@@H](F)C[C@H]3c3nn4ccc(Cl)c4c(=O)n3Cc3ccccn3)c12 [Compound 158]	71.1	6.33	>100	7.34	>100	8.22
N#Cc1c[nH]c2ncnc(N3CC(F)(F)C[C@H]3c3nn4ccc(Cl)c4c(=O)n3Cc3ccccn3)c12 [Compound 160]	11.4	–	34.3	–	80.2	6.85
O=c1c2c(Cl)ccn2nc([C@@H]2CC(F)(F)CN2c2ncnc3[nH]cnc23)n1Cc1ncccn1 [Compound 161]	15.3	–	−8.4	–	45.7	–
N#Cc1c[nH]c2ncnc(N3CCC[C@H]3c3nn4ccc(Cl)c4c(=O)n3C3CCC3)c12 [Compound 162]	83.2	6.86	97.7	8.22	>100	9.00
NC(=O)c1c[nH]c2ncnc(N3CC[C@H]3c3nn4ccc(Cl)c4c(=O)n3-c3ccccc3)c12 [Compound 163]	−3.2	–	0.6	–	31.3	–
O=C(c1c[nH]c2ncnc(N3CCC[C@H]3c3nn4ccc(Cl)c4c(=O)n3-c3ccccc3)c12)N1CCOCC1 [Compound 164]	22.9	–	64.9	–	62.3	–
O=c1c2c(Cl)ccn2nc([C@@H]2CCN2c2ncnc3[nH]cc(C#CCO)c23)n1-c1ccccc1 [Compound 165]	71.3	6.40	>100	8.70	>100	9.00
Nc1ncc(-c2n[nH]c3ncnc(N4CCC[C@H]4c4nn5ccc(Cl)c5c(=O)n4-c4ccccc4)c23)cn1 [Compound 166]	>100	7.77	>100	8.70	97.2	9.00
Nc1ccc(-c2n[nH]c3ncnc(N4CCC[C@H]4c4nn5ccc(Cl)c5c(=O)n4-c4ccccc4)c23)cn1 [Compound 167]	42.3	–	>100	7.68	>100	8.30
COc1ncc(-c2n[nH]c3ncnc(N4CCC[C@H]4c4nn5ccc(Cl)c5c(=O)n4-c4ccccc4)c23)cn1 [Compound 168]	98.8	–	95.1	–	>100	–
Nc1ccc(-c2n[nH]c3ncnc(N4CC[C@H]4c4nn5ccc(Cl)c5c(=O)n4-c4ccccc4)c23)cn1 [Compound 169]	−21.1	–	31.2	–	88.0	8.40
COc1ccc(-c2n[nH]c3ncnc(N4CC[C@H]4c4nn5ccc(Cl)c5c(=O)n4-c4ccccc4)c23)cn1 [Compound 170]	4.6	–	66.5	–	96.1	8.30
Nc1ncc(-c2n[nH]c3ncnc(N4CC[C@H]4c4nn5ccc(Cl)c5c(=O)n4-c4ccccc4)c23)cn1 [Compound 171]	25.2	–	75.3	6.89	96.6	8.30
COc1ncc(-c2n[nH]c3ncnc(N4CC[C@H]4c4nn5ccc(Cl)c5c(=O)n4-c4ccccc4)c23)cn1 [Compound 172]	38.2	–	79.8	6.53	99.6	8.70
N#Cc1ccc(-c2n[nH]c3ncnc(N4CC[C@H]4c4nn5ccc(Cl)c5c(=O)n4-c4ccccc4)c23)cn1 [Compound 173]	25.7	–	48.7	–	96.3	8.40
CC(Nc1ncnc2[nH]cc(-c3ccc(N)nc3)c12)c1cc2ncc(Cl)n2c(=O)n1-c1ccccc1 (stereo not shown) [Compound 174]	97.7	7.64	94.0	7.51	>100	9.00
COc1ncc(-c2c[nH]c3ncnc(NC(C)c4cc5ncc(Cl)n5c(=O)n4-c4ccccc4)c23)cn1 (stereo not shown) [Compound 175]	90.9	7.11	87.6	6.98	99.5	9.00

SMILES	PI3Kβ IH % @ 1 uM (p110β/p85α) [%]	pIC50 (p110β/p85α)	PI3Kγ IH % @ 1 uM (p110γ) [%]	pIC50 (p110γ)	PI3Kδ IH % @ 1 uM (p110δ/p85α) [%]	pIC50 (p110δ/p85α)
Nc1ccc(-c2c[nH]c3ncnc(N4CCOC[C@H]4c4nn5ccc(Cl)c5c(=O)n4-c4ccccc4)c23)cn1 [Compound 176]	16.8	–	58.3	–	97.1	8.30
O=c1c2c(CO)ccn2nc([C@@H]2CCCN2c2ncnc3[nH]cnc23)n1-c1ccccc1 [Compound 177, (S)-2-(1-(9H-purin-6-yl)pyrrolidin-2-yl)-5-(hydroxymethyl)-3-phenylpyrrolo[2,1-f][1,2,4]triazin-4(3H)-one]	17.0	–	79.8	7.05	97.1	7.52
Nc1ncc(C(F)(F)F)c(N2CCC[C@H]2c2nn3ccc(CO)c3c(=O)n2-c2ccccc2)n1 [Compound 178]	1.5	–	7.6	–	82.3	6.68
N#Cc1c[nH]c2ncnc(N3CCC[C@H]3c3nn4ccc(CO)c4c(=O)n3-c3ccccc3)c12 [Compound 179]	51.5	–	97.9	7.82	>100	8.70
Nc1ncc(-c2c[nH]c3ncnc(N4CC[C@H]4c4nn5ccc(F)c5c(=O)n4-c4ccccc4)c23)cn1 [Compound 180, (S)-2-(1-(5-(2-aminopyrimidin-5-yl)-7H-pyrrolo[2,3-d]pyrimidin-4-yl)azetidin-2-yl)-5-fluoro-3-phenylpyrrolo[2,1-f][1,2,4]triazin-4(3H)-one]	92.8	7.39	98.7	8.70	>100	> 9.34
COc1ncc(-c2c[nH]c3ncnc(N4CC[C@H]4c4nn5ccc(F)c5c(=O)n4-c4ccccc4)c23)cn1 [Compound 181]	95.9	7.64	>100	8.40	>100	–
COc1ccc(-c2c[nH]c3ncnc(N4CC[C@H]4c4nn5ccc(F)c5c(=O)n4-c4ccccc4)c23)cn1 [Compound 182]	93.3	7.21	94.9	8.15	>100	–
Nc1ccc(-c2c[nH]c3ncnc(N4CC[C@H]4c4nn5ccc(F)c5c(=O)n4-c4ccccc4)c23)cn1 [Compound 183]	77.2	6.48	>100	8.30	>100	–
N#Cc1ncc(-c2c[nH]c3ncnc(N4CC[C@H]4c4nn5ccc(F)c5c(=O)n4-c4ccccc4)c23)cn1 [Compound 184]	>100	7.42	98.4	8.10	>100	9.30
CC(=O)c1c[nH]c2ncnc(N3CC[C@H]3c3nn4ccc(Cl)c4c(=O)n3-c3ccccc3)c12 [Compound 185, (S)-2-(1-(5-acetyl-7H-pyrrolo[2,3-d]pyrimidin-4-yl)azetidin-2-yl)-5-chloro-3-phenylpyrrolo[2,1-f][1,2,4]triazin-4(3H)-one]	45.9	–	99.0	–	>100	8.22
O=c1c2c(F)ccn2nc([C@@H]2CCCN2c2ncnc3[nH]cnc23)n1-c1ccccc1 [Compound 190]	52.9	–	84.1	–	92.0	8.52
O=c1c2c(F)ccn2nc([C@@H]2CCCN2c2ncnc3[nH]cnc23)n1-c1cccc(F)c1 [Compound 191]	56.8	–	>100	7.49	>100	8.52
CS(=O)(=O)c1cccc(-n2c([C@@H]3CCCN3c3ncnc4[nH]cc(C#N)c34)nn3ccc(Cl)c3c2=O)c1 [Compound 192]	65.3	–	>100	7.74	98.5	8.40
CS(=O)(=O)c1cccc(-n2c([C@@H]3CCCN3c3ncnc4[nH]cnc34)nn3ccc(Cl)c3c2=O)c1 [Compound 193]	31.5	–	93.7	6.92	>100	7.64
N#Cc1c(N)ncnc1N1CC[C@H]1c1nn2ccc(Br)c2c(=O)n1-c1ccccc1 [Compound 194]	29.5	–	75.1	6.82	>100	7.64
C[S+]([O-])c1c[nH]c2ncnc(N3CC[C@H]3c3nn4ccc(Cl)c4c(=O)n3-c3ccccc3)c12 (stereo partly shown) [Compound 196]	32.3	–	>100	7.19	97.1	7.16
